In patent USRE39576E1, “Enzyme inhibitors” (Smithkline Beecham Corporation, priority 1994, dated 2007):
Structures can show the parent of a compound that is named as a salt. Where two headings read alike, the source gives them in different places.

How the values were obtained:
human nNOS = biological target: T1, human nNOS (Homo sapiens, UniProt P29475); assay: Inhibition of purified human nNOS ([14C]-L-arginine to citrulline conversion); format: biochemical; conditions: 30° C., 0.5 μM [14C]-L-arginine, read-out: Purified Human Enzyme Kd nNOS
T1 construct: made in house
Method: (§1) The inhibition of purified human NO synthases was determined following preparation of human nNOS (Furfine et al. (1993) Biochem. 32, 8512-8517), iNOS (Sherman et al. (1993) Biochem. 32, 11600-11605) and eNOS (Garvey et al. (1994) Arch. Bioch. Biophys., in press) as described. Their activity was monitored by the conversion of [^14C]-L-arginine to citrulline as described by Schmidt et al. ((1991) Proc. Natl. Acad. Sci. USA 88, 365-369) in reaction mixtures (100 μl) containing 50 mM HEPES pH 7.0, 8 μM tetrahydrobiopterin, 1 mM NADPH and 0.5 μM [^14C]-L-arginine (30,000 cpm) at 30° C.

human iNOS [1] = biological target: T2, human iNOS (Homo sapiens, UniProt P35228); assay: Inhibition of purified human iNOS ([14C]-L-arginine to citrulline conversion); format: biochemical; parameters: made in house; conditions: for Selectivity for iNOS vs. cNOS: purified human enzymes, ratio of Kd; for Selectivity for iNOS vs. cNOS [relative to LNMMA]: value in square brackets
Method: as §1

iNOS in rat aortic rings = biological target: T3, iNOS in rat aortic rings (Rattus norvegicus, UniProt Q06518); assay: Inhibition of iNOS in situ in rat aortic rings (LPS-induced loss of tone, endothelium-denuded rings); format: cell-based; conditions: for IC50: endothelium-denuded rings, LPS 6 h, mean ±SEM (n), read-out: IC50 iNOS in rate sortic rings; for Selectivity for iNOS: rat aortic rings, iNOS vs eNOS
T3 construct: During this time a progressive loss of tone occurred because of iNOS induction; from tissue; host or cells: rat thoracic aorta rings, endothelium-denuded, exposed to LPS
Method: (§2) The inhibition of eNOS and iNOS in situ in rat aortic rings was assessed by measuring the increases in ring tension caused by NO synthase inhibition. For studies of basal tone (reflecting eNOS), rings of thoracic aorta with intact endothelium were prepared as described previously (Rees et al. (1989) Br. J. Pharmacol. 96, 418-424) and cumulative concentration curves obtained for the inhibitors in the presence of a threshold concentration of phenylephrine (ED10≈10 nM). For studies of induced smooth muscle tone (reflecting iNOS), endothelium-denuded rings were exposed to LPS (0.1 μg/ml from S. typhosa) in the presence of phenylephrine at approximately ED90 for 6 h as described previously (Rees et al. (1990) Biochem. Biophys. Res. Commun. 173, 541-547). During this time a progressive loss of tone occurred because of iNOS induction. Cumulative concentration curves were then obtained for the inhibitors.

human iNOS [2] = biological target: T2, human iNOS; assay: Inhibition of recombinant human iNOS (baculovirus/insect cell cytosol, spectrophotometric microtitre plate assay); format: biochemical; parameters: made in house; host or cells: baculovirus/insect cell system; insect cytosol assayed unpurified; conditions: 37° C., L-arginine 30 μM, steady-state 15-30 min; mean ±SEM (n)
Method: Inhibition of recombinant human iNOS was determined following expression in a baculovirus/insect cell system (Charles et al (1994) In: The Biology of Nitric Oxide 4, Moncada S., Feelisch M., Busse R. and Higgs E. A., eds., Portland Press, London, pp 316-320), assaying the insect cytosol for NO synthase in a microtitre plate assay based on the spectrophotometric assay described previously (Knowles et al (1990) Biochem. Biophys. Res. Commun. 172, 1042-1048). The assay was conducted at 37° C. in reaction mixtures containing HEPES (100 mM), DTT (0.1 mM), tetrahydrobiopterin (5 μM), NADPH (100 μM), haemoglobin (5 μM), L-arginine (30 μM) and inhibitor (0-300 μM), measuring the absorbance change at 405-420 nm, and determining the steady-state inhibition between 15 and 30 minutes incubation.

human eNOS = biological target: T4, human eNOS (Homo sapiens, UniProt P29474); assay: Inhibition of purified human eNOS ([14C]-L-arginine to citrulline conversion); format: biochemical; conditions: purified human enzyme, 30° C., 0.5 μM [14C]-L-arginine; read-out: Purified Human Enzyme Kd tNOS
T4 construct: made in house
Method: as §1

eNOS in rat aortic rings = biological target: T5, eNOS in rat aortic rings (Rattus norvegicus, UniProt Q62600); assay: Inhibition of eNOS in situ in rat aortic rings (basal tone, intact endothelium); format: cell-based; conditions: rings with intact endothelium; for inhibition at 300 µM: read-out: inhibition at 300 μM, cNOS in rat sortic rings; for IC50: basal tone, mean ±SEM (n), read-out: IC50 cNOS in rat sortic rings
T5 construct: from tissue; host or cells: rat thoracic aorta rings with intact endothelium
Method: as §2

iNOS [3] = assay: Endotoxin induced vascular (plasma) leakage in rats; format: in vivo
Method: The effects of Example 7 on endotoxin induced vascular leakage were assessed in rats as described by Laszlo et al ((1994) Brit. J. Pharmacol. 111 1309-1315). […] However, Example 7 did abolish the iNOS-dependent delayed plasma leakage, with an ED50 of 1 mg/kg.

eNOS = biological target: T6, eNOS (Mus musculus, UniProt P70313); assay: Blood pressure in normal conscious mice (eNOS in vivo); conditions: conscious female CD-1 mice, dose range 1-1000 mg/kg, intravenous
T6 construct: from tissue; host or cells: whole animal: female CD-1 mice, untreated
Method: (§3) The inhibition of eNOS and iNOS in vivo was assessed by the effects of inhibitors on blood pressure in either normal (eNOS) or endotoxin shocked (iNOS) conscious mice. Female CD-1 mice (25-35 g) were anaesthetised briefly with isofluorane (2%). Cannula lines were implanted in the femoral vein, tunnelled subcutaneously to exit at the top of the back and connected to a swivel tether system for continuous monitoring of blood pressure and for inhibitor administration respectively. Following recovery from surgery, animals with mean blood pressures in the normal range (90-110 mm Hg) were used to obtain cumulative concentration curves for inhibitors on blood pressure either without further treatment (“normal mice”) or 7 h after administration of lipopolysaccharide (12.5 mg/kg of LPS from E. coli 026:B6 intravenously over 30 s) to induce shock (“shocked mice”).

iNOS [4] = biological target: T7, iNOS (Mus musculus, UniProt P29477); assay: Blood pressure in endotoxin shocked conscious mice (iNOS in vivo); conditions: conscious female CD-1 mice, 7 h after LPS 12.5 mg/kg i.v.
T7 construct: from tissue; host or cells: whole animal: female CD-1 mice, 7 h after LPS
Method: as §3

[5] = purified human iNOS, 30° C., 0.5 μM [14C]-L-arginine, read-out: Purified Human Enzyme Kd iNOS

| Kd (human nNOS) | Selectivity for iNOS vs. cNOS (human iNOS [1]) | Kd (human iNOS [1]; [5]) | Selectivity for iNOS vs. cNOS [relative to LNMMA] (human iNOS [1]) | IC50 (iNOS in rat aortic rings) | Selectivity for iNOS (iNOS in rat aortic rings) | IC50 (human iNOS [2]) | Kd (human eNOS) | inhibition at 300 µM (eNOS in rat aortic rings) | IC50 (eNOS in rat aortic rings) | Structure (SMILES) | aggravation of the endotoxin-induced plasma leakage (iNOS [3]; doses up to 5 mg/kg, administered concurrently with endotoxin) | ED50, abolition of iNOS-dependent delayed plasma leakage (iNOS [3]; endotoxin induced) | Kd (human iNOS [1]; footnote: inhibition strongly time dependant on iNOS, read-out: Kd on iNOS, time dependent inhibition) | effect on blood pressure in normal mice (eNOS) | effect on blood pressure in shocked mice (iNOS [4]) |
| --- | --- | --- | --- | --- | --- | --- | --- | --- | --- | --- | --- | --- | --- | --- | --- |
| 26 µM | 12 | 1.9 µM | 33 | 1.7 ± 0.7 µM | >>200-fold | 5.5 ± 0.55 µM | 23 µM | 8% | > 300 µM | Br.Br.N=C(CF)NCCS(=O)(=O)CC(N)C(=O)O (stereo not drawn) [Example 1, 2-Amino-6-(1-imino-2-fluoroethylamino)-4,4-dioxo-4-thiahexanoic acid dihydrobromide] |  |  |  |  |  |
|  |  |  |  | 33 ± 13 µM | >10-fold | 30 ± 3 µM |  | 26% | > 300 µM | COCC(=N)NCCS(=O)(=O)CC(N)C(=O)O (stereo not drawn) [Example 2, 2-Amino-6-(1-imino-2-methoxyethylamino)-4,4-dioxo-4-thiohexanoic acid dihydrobromide dihydrate] |  |  |  |  |  |
|  |  |  |  |  |  | > 300 µM |  |  |  | N=C(COCc1ccccc1)NCCS(=O)(=O)CC(N)C(=O)O (stereo not drawn) [Example 4, hydrobromide] |  |  |  |  |  |
|  |  |  |  |  |  | 95 ± 3 µM |  |  |  | CSCC(=N)NCCS(=O)(=O)CC(N)C(=O)O (stereo not drawn) [Example 5, 2-Amino-6-(2-methylthio-1-imioethylamino)-4,4-dioxo-4-thiohexanoic acid] |  |  |  |  |  |
|  |  |  |  |  |  | > 300 µM |  |  |  | N=C(CO)NCCS(=O)(=O)CC(N)C(=O)O (stereo not drawn) [Example 6, 2-Amino-6-(2-hydroxy-1-iminoethylamino)-4,4-dioxo-4-thiahexanoic acid 1.67 hydrochloride 0.33 hydrobromide] |  |  |  |  |  |
| 68 µM | 11 | 9.1 µM | 30 | 2.7 ± 0.2 µM | >100 fold |  | 100 µM | 42% | > 300 µM | CC(=N)NCC[S+]([O-])CC(N)C(=O)O (stereo not drawn) [Example 8, 2-Amino-6-(1-iminoethylamino)-4-oxo-4-thiahexanoic acid] |  |  |  |  |  |

| Structure (SMILES) | Kd (human nNOS) | Selectivity for iNOS vs. cNOS (human iNOS [1]) | Kd (human iNOS [1]; [5]) | Selectivity for iNOS vs. cNOS [relative to LNMMA] (human iNOS [1]) | IC50 (iNOS in rat aortic rings) | Selectivity for iNOS (iNOS in rat aortic rings) | IC50 (human iNOS [2]) | Kd (human eNOS) | inhibition at 300 µM (eNOS in rat aortic rings) | IC50 (eNOS in rat aortic rings) | aggravation of the endotoxin-induced plasma leakage (iNOS [3]; doses up to 5 mg/kg, administered concurrently with endotoxin) | ED50, abolition of iNOS-dependent delayed plasma leakage (iNOS [3]; endotoxin induced) | Kd (human iNOS [1]; footnote: inhibition strongly time dependant on iNOS, read-out: Kd on iNOS, time dependent inhibition) | effect on blood pressure in normal mice (eNOS) | effect on blood pressure in shocked mice (iNOS [4]) |
| --- | --- | --- | --- | --- | --- | --- | --- | --- | --- | --- | --- | --- | --- | --- | --- |
| CC(=O)OCC(=N)NCCS(=O)(=O)CC(N)C(=O)O (stereo not drawn) [Example 3, dihydrobromide] |  |  |  |  |  |  | > 300 µM |  |  |  |  |  |  |  |  |
| CC(=N)NCCS(=O)(=O)CC(N)C(=O)O (stereo not drawn) [Example 7, 2-Amino-6-(1-iminoethylamino)-4,4-dioxo-4-thiahexanoic acid] | 18 µM | 27 | 2.9 µM | 73 | 1.5 ± 0.3 µM | 67-fold | 14 ± 0.6 µM | 29 µM |  | 101 ± 21 µM | did not cause aggravation | 1 mg/kg | 0.1 µM | no effect on blood pressure | restore fully the blood pressure to the normal range |
